Laboratory results published in ChEMBL document CHEMBL4616698, “Scaffold Repurposing of in-House Chemical Library toward the Identification of New Casein Kinase 1 δ Inhibitors” (ACS Med Chem Lett, 2020).

How the values were obtained:
[1] = molecular target: Casein kinase I isoform delta (Homo sapiens, UniProt P48730); assay: Inhibition of full length recombinant human GST-tagged CSNK1D expressed in baculovirus expression system using casein as substrate incubated for 10 mins in presence of ATP by KinaseGlo luminescence assay
[2] = molecular target: Casein kinase 1, delta tv1 (Sus scrofa, UniProt M3VH47); assay: Inhibition of porcine brain CK-1delta using RRKHAAIGpSAYSITA peptide as substrate incubated for 30 mins in presence of [gamma-33P]-ATP by scintillation counting method
Casein kinase 1, delta tv1, sequence (M3VH47 whole entry): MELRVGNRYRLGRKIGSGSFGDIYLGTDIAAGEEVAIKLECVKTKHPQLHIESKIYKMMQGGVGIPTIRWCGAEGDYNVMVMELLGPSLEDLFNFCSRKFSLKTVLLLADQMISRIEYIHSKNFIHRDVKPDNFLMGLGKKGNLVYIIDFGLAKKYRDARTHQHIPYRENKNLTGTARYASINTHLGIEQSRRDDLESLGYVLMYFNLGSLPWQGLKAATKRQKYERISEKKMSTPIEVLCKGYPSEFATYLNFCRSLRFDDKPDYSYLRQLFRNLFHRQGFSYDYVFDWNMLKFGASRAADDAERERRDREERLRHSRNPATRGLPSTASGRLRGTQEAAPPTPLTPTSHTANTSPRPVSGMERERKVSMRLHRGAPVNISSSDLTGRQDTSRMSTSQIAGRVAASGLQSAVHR

Casein kinase I isoform delta, sequence (P48730 whole entry, canonical isoform): as the sequence (M3VH47 whole entry) above, with A340V, A401P, A406S, A412V counted along it

Work on Oc1cc(-c2cccc(Br)c2)nc2ccc3[nH]ccc3c12 yielded an IC50 [1] of 13 µM.

Compound CCn1ccc2c3c(=O)cc(-c4cccc5ccccc45)[nH]c3ccc21 has an IC50 [1] of 15.2 µM.

Nc1nccc(-c2c(-c3ccc(F)cc3)ncn2C2CCCCC2)n1 gave an IC50 [2] of 0.0077 µM.
